Data on 24 compounds can be found in ChEMBL document CHEMBL5335833, “Asperustins A-J: Austocystins with Immunosuppressive and Cytotoxic Activities from Aspergillus ustus NRRL 5856” (J Nat Prod, 2024).

For data set [1], the system named is Splenocyte. Put plainly: Immunosuppressive activity in BALB/c mouse splenocytes assessed as reduction in ConA-induced mouse T-lymphocytes proliferation. The data set is classed as functional, cell-based.
Data set [2] has as its system Splenocyte. Put plainly: Immunosuppressive activity in BALB/c mouse splenocytes assessed as reduction in […]-induced mouse B-lymphocyte proliferation. The data set is classed as functional, cell-based.
Data set [3] in a line: Cytotoxicity against mouse T-lymphocytes. The data set is classed as toxicity, cell-based, T-cell.
A short description of data set [4]: Cytotoxicity against mouse B-lymphocytes. The data set is classed as toxicity, cell-based, B-cell.
A short description of data set [5]: Selectivity index, ratio of CC50 for cytotoxicity against mouse T lymphocytes to IC50 for Immunosuppressive activity in BALB/c mouse splenocytes assessed as reduction in ConA-induced mouse T-lymphocytes proliferation. The data set is classed as toxicity, cell-based.
The nature of data set [6]: Selectivity index, ratio of CC50 for cytotoxicity against mouse T lymphocytes to IC50 for Immunosuppressive activity in BALB/c mouse splenocytes assessed as reduction in […]-induced mouse B-lymphocytes proliferation. The data set is classed as toxicity, cell-based.
Data set [7] concerns Splenocyte. The data set can be described thus: Immunosuppressive activity in LPS-induced BALB/c mouse splenocyte assessed as reduction in IL-6 cytokine level incubated for 48 hrs by ELISA assay. The data set is classed as functional, cell-based. Conditions: dose 0.2-5 µM. (In general: ELISA stands for enzyme-linked immunosorbent assay.)
The test system of data set [8] is MCF7. The data set can be described thus: Cytotoxicity against human MCF7 cells. The data set is classed as functional, cell-based.

Take `O=C1c2c(O)cccc2OC2C=C3O[C@H]4OC=C[C@@]4(O)C3=C(O)C12` (stereo partly drawn): the IC50 in data set [1] is 9.4 µM; in data set [2] it was more than 40 µM. For the same compound, the CC50 in data set [3] and in data set [4] was more than 40 µM each time. Also, in data set [5], the selectivity ratio was more than 4.2.
Regarding `CC(C)(O)CCc1ccc(O)c2c1OC1C=C3O[C@H]4OCC[C@H]4C3=C(O)C1C2=O` (stereo partly drawn), the concentration for half-maximal inhibition (IC50) is 1 µM in data set [1] and 3.6 µM in data set [2]. Moreover, the CC50 in data set [3] and in data set [4] was 5.2 µM throughout. For the same compound, the selectivity ratio in data set [5] is 5.2; in data set [6], 1.4.
`COc1c(C)c2c(c(O)c1C/C=C(\C)CCC(=O)OCCN1CCOCC1)C(=O)OC2` [MYCOPHENOLATE MOFETIL]: in data set [2], the IC50 is 0.21 µg/mL.
On to `CO[C@@H]1C[C@@]2(O)C3=C(O)C4C(=O)c5c(O)ccc(CCC(C)(C)O)c5OC4C=C3O[C@H]2O1` (stereo partly drawn), for which the IC50 in data set [1] was 1.3 µM; in data set [2] it was 3.8 µM. Further, the CC50 in data set [3] and in data set [4] was 7.7 µM each time. Moreover, the selectivity ratio in data set [5] came out at 5.9; in data set [6], 2.
`CC(C)(O)C[C@H](O)c1ccc(O)c2c1OC1C=C3O[C@H]4OC=C[C@@]4(O)C3=C(O)C1C2=O` (stereo partly drawn): the IC50 in data set [1] turned out to be 0.93 µM; in data set [2], 12 µM; in data set [8], 0.46 µM. Further, the Activity result in data set [7] was “Dose-Dependent Effect”. Besides, the CC50 in data set [3] and in data set [4] was 16 µM throughout. The selectivity ratio in data set [5] was 17; in data set [6] it was 1.3.
Consider `COc1c(Cl)ccc2c1C(=O)C1C(O)=C3C(=CC1O2)O[C@H]1OC=C[C@@]31O` (stereo partly drawn), for which the IC50 in data set [1] and in data set [2] was more than 40 µM in each case. In addition, the 50% cytotoxic concentration (CC50) in data set [3] and in data set [4] was more than 40 µM throughout.
For `COC1=C2C(=CC3Oc4c(CCC(C)(C)O)ccc(O)c4C(=O)C13)O[C@H]1OC=C[C@@H]21` (stereo partly drawn), the IC50 in data set [1] was 4 µM; in data set [2] it was 5.8 µM; in data set [8], 0.46 µM. The CC50 in data set [3] and in data set [4] was 17 µM each time. The selectivity ratio amounted to 4.3 in data set [5] and 2.9 in data set [6].
Take `CC(C)(O)CCc1ccc(O)c2c(=O)c3c(O)c4c(cc3oc12)O[C@H]1OC=C[C@@]41O` [AUSTOCYSTIN D]: the IC50 stood at 1.6 µM in data set [1], 4 µM in data set [2] and 0.46 µM in data set [8]. Further, the 50% cytotoxic concentration (CC50) in data set [3] and in data set [4] was 7.8 µM in each case. Also, the selectivity ratio in data set [5] was 4.9; in data set [6], 2.
As for `CC(C)(O)C[C@H](O)c1ccc(O)c2c1OC1C=C3O[C@H]4OC=C[C@H]4C3=C(O)C1C2=O` (stereo partly drawn), the IC50 in data set [1] is 1.2 µM; in data set [2], 7.5 µM; in data set [8], 0.46 µM. The CC50 in data set [3] and in data set [4] was 8.1 µM throughout. Moreover, the selectivity ratio amounted to 6.8 in data set [5] and 1.1 in data set [6].
On to `COc1cc(OC)c2c(c1)C(=O)C1C=C3O[C@@]4(C)CC[C@H](O)[C@H](O4)C3=C(O)C1C2=O` (stereo partly drawn), for which the IC50 was more than 40 µM in data set [1] and 7 µM in data set [2]. The CC50 in data set [3] and in data set [4] was more than 40 µM in each case. Further, in data set [6], the selectivity ratio was more than 5.7.
For `COc1ccc(CCC(C)(C)O)c2c1C(=O)C1C(O)=C3C(=CC1O2)O[C@H]1OC=C[C@@]31O` (stereo partly drawn), the figures for the IC50 in data set [1], in data set [2] and in data set [8] were 1 µM, 8.4 µM and 0.46 µM, respectively. In addition, in data set [7], the Activity result is “Dose-Dependent Effect”. Further, the CC50 in data set [3] and in data set [4] was 14 µM in each case. The selectivity ratio was 14 in data set [5] and 1.7 in data set [6].
Consider `COC1=C2C(=CC3Oc4c(OC)cc(Cl)c(OC)c4C(=O)C13)O[C@H]1O[C@@H](O)C[C@@H]21` (stereo partly drawn), for which the half-inhibitory concentration (IC50) was 11 µM in data set [1] and 10 µM in data set [2]. Moreover, the CC50 in data set [3] and in data set [4] was 31 µM throughout. The selectivity ratio came to 2.8 in data set [5] and 3.1 in data set [6].
In the case of `CO[C@H]1C[C@@]2(O)C3=C(O)C4C(=O)c5c(O)ccc(CCC(C)(C)O)c5OC4C=C3O[C@H]2O1` (stereo partly drawn), the half-inhibitory concentration (IC50) in data set [1] was 1.2 µM; in data set [2], 4.3 µM. In addition, the CC50 in data set [3] and in data set [4] was 8.9 µM in each case. Besides, the values for the selectivity ratio in data set [5] and in data set [6] were 7.4 and 2.1, respectively.
Turning to `COC1=C2C(=CC3Oc4ccc(Cl)c(OC)c4C(=O)C13)O[C@H]1O[C@H](OC)C[C@@H]21` (stereo partly drawn), the IC50 in data set [1] was found to be 11 µM; in data set [2], 5.1 µM. Besides, the CC50 in data set [3] and in data set [4] was more than 40 µM in each case. The results for the selectivity ratio in data set [5] and in data set [6] were more than 3.6 and more than 7.8, respectively.
With `CCCCC[C@H](O)c1c(O)cc2c(c1O)C(=O)C1C(O)=CC(O)=CC1C2=O` (stereo partly drawn), the values for the concentration for half-maximal inhibition (IC50) in data set [1] and in data set [2] were more than 40 µM and 17 µM, respectively. Besides, the 50% cytotoxic concentration (CC50) in data set [3] and in data set [4] was more than 40 µM in each case. In addition, the selectivity ratio in data set [6] is more than 2.4.
For `COC1=C2C(=CC3Oc4ccc(Cl)c(OC)c4C(=O)C13)O[C@H]1O[C@@H](OC)C[C@@H]21` (stereo partly drawn), the IC50 in data set [1] stood at 27 µM; in data set [2], 11 µM. Also, the CC50 in data set [3] and in data set [4] was more than 40 µM each time. Further, the values for the selectivity ratio in data set [5] and in data set [6] were more than 1.5 and more than 3.6, respectively.
In the case of `COC1=C2C(=CC3Oc4c(OC)cc(Cl)c(OC)c4C(=O)C13)O[C@H]1OC=C[C@@H]21` (stereo partly drawn), the IC50 in data set [1] turned out to be 7.1 µM; in data set [2], 13 µM. Further, the cytotoxic concentration (CC50) in data set [3] and in data set [4] was 12 µM each time. Moreover, the selectivity ratio was 1.7 in data set [5] and 0.92 in data set [6].
With `CO[C@@H]1C[C@H]2C3=C(O)C4C(=O)c5c(O)ccc(CCC(C)(C)O)c5OC4C=C3O[C@H]2O1` (stereo partly drawn), the IC50 in data set [1] came out at 2.1 µM; in data set [2] it was 4.8 µM. Besides, the CC50 in data set [3] and in data set [4] was 12 µM each time. Besides, the selectivity ratio worked out at 5.7 in data set [5] and 2.5 in data set [6].
For the compound `C[C@]12CCC[C@H](O1)c1c(cc3c(c1O)C(=O)c1c(O)cc(O)cc1C3=O)O2`, the IC50 in data set [1] was 4.8 µM; in data set [2], 22 µM. The CC50 in data set [3] and in data set [4] was more than 40 µM throughout. The selectivity ratio in data set [5] was more than 8.3; in data set [6] it was more than 1.8.
With `CC(C)=CCc1ccc(O)c2c1OC1C=C3O[C@H]4OC=C[C@@]4(O)C3=C(O)C1C2=O` (stereo partly drawn), the half-maximal inhibitory concentration (IC50) was found to be 14 µM in data set [1] and 16 µM in data set [2]. For the same compound, the cytotoxic concentration (CC50) in data set [3] and in data set [4] was 15 µM in each case. Also, the values for the selectivity ratio in data set [5] and in data set [6] were 1.1 and 0.94, respectively.
In the case of `CO[C@H]1C[C@H]2C3=C(O)C4C(=O)c5c(O)ccc(CCC(C)(C)O)c5OC4C=C3O[C@H]2O1` (stereo partly drawn), the 50% inhibitory concentration (IC50) in data set [1] stood at 1.1 µM; in data set [2], 7.9 µM. Moreover, the Activity result in data set [7] is “Dose-Dependent Effect”. Moreover, the cytotoxic concentration (CC50) in data set [3] and in data set [4] was 15 µM throughout. Further, the selectivity ratio came out at 14 in data set [5] and 1.9 in data set [6].
For `COC1=C2C(=CC3Oc4cccc(O)c4C(=O)C13)O[C@H]1OC=C[C@@]21O` (stereo partly drawn), the IC50 in data set [1] and in data set [2] was more than 40 µM throughout. The CC50 in data set [3] and in data set [4] was more than 40 µM in each case.
For `CCCCC[C@H](OC)c1c(O)cc2c(c1O)C(=O)C1C(O)=CC(O)=CC1C2=O` (stereo partly drawn), the IC50 in data set [1] and in data set [2] was more than 40 µM in each case. Moreover, the CC50 in data set [3] and in data set [4] was more than 40 µM throughout.
For the compound `COC1=C2C(=CC3Oc4ccc(Cl)c(OC)c4C(=O)C13)O[C@H]1O[C@H](OC(C)=O)C[C@@H]21` (stereo partly drawn), the figures for the half-maximal inhibitory concentration (IC50) in data set [1] and in data set [2] were 16 µM and 20 µM, respectively. In addition, the CC50 in data set [3] and in data set [4] was 28 µM in each case. For the same compound, the selectivity ratio in data set [5] came to 1.8; in data set [6], 1.4.

Usually IC50 stands for the concentration that inhibits the measured activity by half. For orientation: CC50 means the concentration at which the toxic effect on the cells reaches its halfway point.
